Structures are written as SMILES. Converted amounts (≈) assume the structure as drawn.

For one experiment, the system named is Cryptococcus neoformans. As to the kind of experiment: Antifungal activity against Cryptococcus neoformans. In kind it is functional.
The subject of a further experiment is Trichophyton benhamiae. As to the kind of experiment: Antifungal activity against Trichophyton mentagrophytes. In kind it is functional, Arthroderma benhamiae.
The test system of a further experiment is Candida albicans. As to the kind of experiment: Antifungal activity against Candida albicans. In kind it is functional.
The next experiment deals with Aspergillus fumigatus. As to the kind of experiment: Antifungal activity against Aspergillus fumigatus. In kind it is functional.
A further experiment has as its system Sporothrix schenckii. As to the kind of experiment: Antifungal activity against Sporothrix schenckii. In kind it is functional.

In general, MIC refers to the least concentration at which growth counts as inhibited. A high value points to a need for much substance. As for `COc1c(C=O)c(O)c(O)c2c1C(=O)c1ccccc1C2=O`, the MIC in the experiment on Cryptococcus neoformans was 50 µg/mL (≈ 168 µM); with Trichophyton benhamiae, 12.5 µg/mL (≈ 41.9 µM); against Candida albicans, 50 µg/mL (≈ 168 µM); in the experiment on Aspergillus fumigatus it was greater than 100 µg/mL; against Sporothrix schenckii, 25 µg/mL (≈ 83.8 µM).

Turning to `Clc1ccccc1C(c1ccccc1)(c1ccccc1)n1ccnc1` [CLOTRIMAZOLE], the MIC in the experiment with Cryptococcus neoformans stood at 0.09 µg/mL (≈ 0.261 µM); in the experiment on Trichophyton benhamiae, 0.39 µg/mL (≈ 1.13 µM); with Candida albicans, 3.1 µg/mL (≈ 8.99 µM); against Aspergillus fumigatus it was 1.56 µg/mL (≈ 4.52 µM); against Sporothrix schenckii, 1.56 µg/mL (≈ 4.52 µM).

With `COc1c(C=O)c(O)cc2c1C(=O)c1ccccc1C2=O` [DAMNACANTHAL], the MIC against Cryptococcus neoformans is 12.5 µg/mL (≈ 44.3 µM); in the experiment with Trichophyton benhamiae it was 1.56 µg/mL (≈ 5.53 µM); with Candida albicans it was 50 µg/mL (≈ 177 µM); in the experiment with Aspergillus fumigatus, 50 µg/mL (≈ 177 µM); in the experiment with Sporothrix schenckii, 6.25 µg/mL (≈ 22.1 µM).

For the origin of these results see ChEMBL document CHEMBL1146902, “Antifungal anthraquinones from Saprosma fragrans” (2006).
